Assay results taken from US20260365699A1, “Compound Production Method” (The University of Tokyo, priority 2022, published 2026).
*1 amine or outer side, *2 acyl side, *3 side chain or, on linkers, in order; H or OH if unused. Where a SMILES comes first, the peptide text is derived from it. Bridges are numbered along the chain shown (N, C = ends). [ ]: non-standard residue; d: D form. The star is where a group is joined. X2 = C=C(N[*:2])c1nc(-c2nc(-c3nc(C(=O)NCCC(=O)NCCOCCOCCCCCCCl)cs3)ccc2C(=O)[*:1])cs1; X1 = C=C(N[*:2])c1nc(-c2nc(-c3nc(C(=O)OC)cs3)ccc2C(=O)[*:1])cs1; Nle = CCCC[C@H](N)C(=O)O; Dhb = C/C=C(\N)C(=O)O; Dha = C=C(N)C(=O)O; Cam = NC(=O)C*

Columns and labels:
HEK293H cells = test: Chloroalkane penetration assay (CAPA) in HEK293H cells; format: cell-based, human; conditions: chloroalkane-labeled derivatives
Experimental: (§1) The sub-confluent HCT116 cells were treated with the indicated compounds for 24 hours and the cellular levels of TNIK, TNIK pSer764 (autophosphorylation product), c-Myc, and Axin2 were analyzed by an immunoblotting method (FIG. 7(b)) and RT-qPCR (FIG. 7(c)).
Next, it was confirmed whether or not the obtained compound could also access an intracellular target protein (TNIK is localized in the cytoplasm and the cell nucleus) in a human cell model. First, a chloroalkane penetration assay (CAPA) was performed on 4 types (TP1-ct, TP8-ct, TP14-ct, and TP15-ct) out of the 6 types of chloroalkane-labeled thiopeptide derivatives shown in FIG. 5 in order to measure an uptake degree into the cytoplasm (Peraro, L.; Deprey, K. L.; Moser, M. K.; Zou, Z.; Ball, H. L.; Levine, B.; and Kritzer, J. A. Cell Penetration Profiling Using the Chloroalkane Penetration Assay. J. Am. Chem. Soc. 2018, 140, 11360-11369).

[1] = Stability / reactivity towards glutathione (GSH), LC/MS; format: physicochemical; conditions: for reactivity with GSH, in words: increasing concentration of glutathione (GSH)
TNIK [2] = target: TNIK (Homo sapiens, UniProt Q9UKE5); test: Surface plasmon resonance (SPR) binding affinity to TNIK; conditions: saturated concentration of ATP (1 mM; 15-fold higher than KM)
Chain of TNIK (Homo sapiens, UniProt Q9UKE5) (Q9UKE5 whole entry): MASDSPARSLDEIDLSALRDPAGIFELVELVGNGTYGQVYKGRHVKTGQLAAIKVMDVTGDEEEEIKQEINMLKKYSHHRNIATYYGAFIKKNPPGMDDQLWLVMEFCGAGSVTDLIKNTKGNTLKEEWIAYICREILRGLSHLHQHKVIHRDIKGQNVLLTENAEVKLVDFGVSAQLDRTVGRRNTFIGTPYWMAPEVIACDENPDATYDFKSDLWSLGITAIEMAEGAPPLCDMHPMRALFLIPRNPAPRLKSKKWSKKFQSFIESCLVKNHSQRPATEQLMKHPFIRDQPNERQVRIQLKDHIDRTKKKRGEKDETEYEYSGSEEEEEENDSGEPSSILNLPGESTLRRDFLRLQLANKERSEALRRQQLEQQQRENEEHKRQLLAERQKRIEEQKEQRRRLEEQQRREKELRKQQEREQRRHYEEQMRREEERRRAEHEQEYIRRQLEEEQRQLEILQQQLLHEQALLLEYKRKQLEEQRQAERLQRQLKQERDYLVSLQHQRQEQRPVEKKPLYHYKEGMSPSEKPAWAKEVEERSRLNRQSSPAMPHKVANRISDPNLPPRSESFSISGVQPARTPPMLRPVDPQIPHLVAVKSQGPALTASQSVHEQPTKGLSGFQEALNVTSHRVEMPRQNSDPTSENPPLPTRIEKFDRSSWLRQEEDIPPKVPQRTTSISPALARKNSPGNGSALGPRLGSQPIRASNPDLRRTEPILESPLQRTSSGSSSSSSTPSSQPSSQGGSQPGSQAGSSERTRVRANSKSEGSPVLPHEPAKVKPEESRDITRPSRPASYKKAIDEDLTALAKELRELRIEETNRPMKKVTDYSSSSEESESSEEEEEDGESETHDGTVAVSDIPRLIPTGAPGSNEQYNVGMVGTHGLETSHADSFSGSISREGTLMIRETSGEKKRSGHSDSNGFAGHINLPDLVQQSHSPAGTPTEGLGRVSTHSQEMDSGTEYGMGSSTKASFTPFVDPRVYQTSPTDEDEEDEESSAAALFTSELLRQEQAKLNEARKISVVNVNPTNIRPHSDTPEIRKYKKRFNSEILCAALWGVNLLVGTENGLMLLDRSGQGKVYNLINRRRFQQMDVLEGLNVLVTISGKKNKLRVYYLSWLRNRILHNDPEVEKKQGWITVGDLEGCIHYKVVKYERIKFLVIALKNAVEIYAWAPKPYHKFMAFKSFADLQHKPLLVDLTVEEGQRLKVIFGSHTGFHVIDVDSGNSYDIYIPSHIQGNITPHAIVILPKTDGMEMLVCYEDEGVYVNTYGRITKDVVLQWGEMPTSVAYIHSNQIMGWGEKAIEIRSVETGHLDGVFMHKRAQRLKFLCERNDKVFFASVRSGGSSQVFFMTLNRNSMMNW
Source text: Surface plasmon resonance (SPR) was used to evaluate the binding affinity of the thiopeptide synthesized in Example 2 to TNIK.

[3] = Metabolic stability in human serum (LC/MS); format: in vitro ADME; conditions: 37 °C
Experimental: The compounds were incubated with a human serum at 37 °C, and the amount of the residual test substance at various points in time was quantified by LC/MS with respect to an internal standard substance. […] Next, it was examined whether or not the half-lives of the compounds were affected by the reactivity of the Dha residue. The Dha residue may be conjugated with various serum thiols.
In addition, the metabolic stability of all of the 14 types of candidate thiopeptides was examined. The compound was incubated with the human serum at 37 °C, and the amount of the residual thiopeptide at various points in time was quantified by LC/MS with respect to the internal standard substance. The half-life of the thiopeptide for TLR10 was generally as long as 38.2 hours, and the thiopeptide was stable.

TNIK pSer764 = test: Immunoblotting of TNIK pSer764 (TNIK autophosphorylation) in HCT116 cells; format: cell-based, human; conditions: 20 μM of TP15, 24 hours, immunoblotting
Experimental: as §1
Nat. Commun. 2016, 7, 12586).

TNIK mRNA = TNIK mRNA level in HCT116 cells (RT-qPCR); format: cell-based, human
Experimental: as §1

TNIK [4] = test: TNIK protein level in HCT116 cells (immunoblotting); format: cell-based, human
Experimental: as §1

[5] = test system: NF-kB signaling pathway in THP-1 cells; test: Inhibition of NFkB reporter gene activity in THP1-XBlue stable cell line; format: cell-based, human
Source text: (§2) FIG. 11(a) illustrates TL12 which is a lactazole-like binder of TLR10, retrosynthesis thereof, and amino acid building blocks used. FIG. 11(b) illustrates a binding affinity (KD value) to IRAK4 and an inhibition (IC50) by the synthesized thiopeptide. The half-life (τ1/2) in the human serum and the inhibition (IC50) of the NF-kB signaling pathway in THP-1 cells are also shown. These values were obtained by non-linear regression of the experimental data.: The shaded C in IR4 is hGln (which is a product of IAA alkylation of Cys, but is replaced by homoglutamine); the shaded M in IR15 is Nle (in which Met is replaced by Nle); and the shaded T in IR15 represents a Dhb residue. […] FIG. 11(c) illustrates the binding affinity (KD value) to TLR10 and the half-life (τ1/2) in the human serum.: The shaded C in TL1, TL8, and TL16 is hGln (a product of IAA alkylation of Cys, but is replaced by homoglutamine); the shaded M in TL8, TL11, TL12, TL13, and TL18 is Nle (in which Met is replaced by Nle); the shaded S in 8S of TL11 and TL12 represents a Dha residue; and the shaded S in 9S of TL12 represents an oxazole. […] FIG. 11(d) illustrates the results of a CAPA assay of IR1, IR15, and TP8. The assay was carried out in HEK293T cells.
(§3) Finally, the cell activity of the thiopeptide against IRAK4, which is an intracellular target protein localized in the cytoplasm and the cell nucleus, was examined. […]

HEK293T cells = test: Chloroalkane penetration assay (CAPA) in HEK293T cells; format: cell-based, human; conditions: compared with Tat
Source text: as §2, §3

C=C1NC(=O)c2csc(n2)[C@H]([C@@H](C)O)NC(=O)[C@H](C)NC(=O)[C@H]([C@@H](C)CC)NC(=O)[C@H](CCCNC(=N)N)NC(=O)CNC(=O)[C@H](CCCNC(=N)N)NC(=O)[C@H]([C@@H](C)O)NC(=O)[C@H](CCCNC(=N)N)NC(=O)[C@H]([C@@H](C)CC)NC(=O)[C@H]([C@@H](C)O)NC(=O)[C@H](Cc2c[nH]c3ccccc23)NC(=O)c2ccc(-c3nc(C(=O)NCCC(=O)NCCOCCOCCCCCCCl)cs3)nc2-c2csc1n2 [TP15-ct]
cytoplasmic uptake (CAPA), in words (HEK293H cells): taken up into HEK293H cells at a concentration of a single-digit μM

C=C1NC(=O)CNC(=O)[C@H](CCCNC(=N)N)NC(=O)[C@H](Cc2ccc(O)cc2)NC(=O)[C@H](CC(C)C)NC(=O)[C@H](CO)NC(=O)[C@H](CCCCN)NC(=O)[C@H](CC(N)=O)NC(=O)CNC(=O)[C@H](Cc2ccccc2)NC(=O)[C@H](Cc2c[nH]c3ccccc23)NC(=O)[C@H](Cc2c[nH]c3ccccc23)NC(=O)c2ccc(-c3nc(C(=O)NCCC(=O)NCCOCCOCCCCCCCl)cs3)nc2-c2csc1n2 [TP14-ct] (WWFGNKSLYRG; linker N-C via X2)
cytoplasmic uptake (CAPA), in words (HEK293H cells): taken up into HEK293H cells at a concentration of a single-digit μM

C=C1NC(=O)C(=C)NC(=O)[C@H](CCCCN)NC(=O)[C@H](CC(C)C)NC(=O)[C@H]([C@@H](C)O)NC(=O)[C@H](CCCCN)NC(=O)[C@H](Cc2ccc(O)cc2)NC(=O)[C@H]([C@@H](C)CC)NC(=O)[C@H](Cc2ccccc2)NC(=O)CNC(=O)[C@H](Cc2c[nH]c3ccccc23)NC(=O)c2ccc(-c3nc(C(=O)OC)cs3)nc2-c2csc(n2)C(=C)NC(=O)CNC1=O [TP1] (WGFIYKTLK[Dha][Dha]G; linker N-C via X1)
reactivity with GSH, in words [1]: Dha11 and Dha12 in TP1 react with GSH | binding to TNIK in the presence of ATP (TNIK [2]): bonded to TNIK in the presence of the saturated concentration of ATP | cytoplasmic uptake (CAPA), in words (HEK293H cells): efficient cytoplasmic translocation

C=C1NC(=O)CNC(=O)[C@H](CCCNC(=N)N)NC(=O)[C@H](Cc2ccc(O)cc2)NC(=O)[C@H](CC(C)C)NC(=O)[C@H](CO)NC(=O)[C@H](CCCCN)NC(=O)[C@H](CC(N)=O)NC(=O)CNC(=O)[C@H](Cc2ccccc2)NC(=O)[C@H](Cc2c[nH]c3ccccc23)NC(=O)[C@H](Cc2c[nH]c3ccccc23)NC(=O)c2ccc(-c3nc(C(=O)OC)cs3)nc2-c2csc1n2 [TP14] (WWFGNKSLYRG; linker N-C via X1)
residual amount in the presence of GSH ([1]; 10 mM GSH, after 24 hours): > 95% | reactivity with GSH, in words [1]: stable | binding to TNIK in the presence of ATP (TNIK [2]): bonded to TNIK in the presence of the saturated concentration of ATP | stability in human serum, in words [3]: short half-life | cytoplasmic uptake (CAPA), in words (HEK293H cells): efficient cytoplasmic translocation

C=C1NC(=O)CNC(=O)[C@H](CC(N)=O)NC(=O)[C@H](CC(C)C)NC(=O)CNC(=O)[C@H](CCCCN)NC(=O)[C@H](C)NC(=O)[C@H]([C@@H](C)CC)NC(=O)[C@H](CO)NC(=O)[C@H](Cc2c[nH]c3ccccc23)NC(=O)[C@H](C)NC(=O)[C@H](Cc2c[nH]c3ccccc23)NC(=O)c2ccc(-c3nc(C(=O)OC)cs3)nc2-c2csc1n2 [TP8] (WAWSIAKGLNG; linker N-C via X1)
binding to TNIK in the presence of ATP (TNIK [2]): bonded to TNIK in the presence of the saturated concentration of ATP | half-life (τ1/2) in human serum [3]: 14 h | stability in human serum, in words [3]: good stability

OC1CCC(Oc2cccc3cnc(Nc4ccc5nc[nH]c5c4)nc23)CC1 (centres unmarked) [NCB0846, reference compound]
level of TNIK pSer764 (TNIK pSer764): the same | overall expression of TNIK, mRNA level (TNIK mRNA): down-regulated | overall expression of TNIK, protein level (TNIK [4]): down-regulated

C=C1NC(=O)/C(=C/C)NC(=O)[C@H](Cc2c[nH]c3ccccc23)NC(=O)[C@H](Cc2c[nH]cn2)NC(=O)[C@H](Cc2c[nH]c3ccccc23)NC(=O)[C@H]([C@@H](C)O)NC(=O)[C@H]([C@@H](C)CC)NC(=O)[C@H](Cc2ccccc2)NC(=O)[C@H](CCC(N)=O)NC(=O)[C@H](CCCNC(=N)N)NC(=O)[C@H](CCCCN)NC(=O)[C@H](CCCC)NC(=O)[C@H](CO)NC(=O)[C@H](Cc2c[nH]c3ccccc23)NC(=O)c2ccc(-c3nc(C(=O)NCCC(=O)NCCOCCOCCCCCCCl)cs3)nc2-c2csc1n2 [IR15-ct] (WS[Nle]KRQFITWHW[Dhb]; linker N-C via X2)
inhibition of NFkB reporter gene activity, in words [5]: significant inhibition

C=C1NC(=O)C(=C)NC(=O)[C@H](CCCCN)NC(=O)[C@H](CC(C)C)NC(=O)[C@H]([C@@H](C)O)NC(=O)[C@H](CCCCN)NC(=O)[C@H](Cc2ccc(O)cc2)NC(=O)[C@H]([C@@H](C)CC)NC(=O)[C@H](Cc2ccccc2)NC(=O)CNC(=O)[C@H](Cc2c[nH]c3ccccc23)NC(=O)c2ccc(-c3nc(C(=O)NCCC(=O)NCCOCCOCCCCCCCl)cs3)nc2-c2csc(n2)C(=C)NC(=O)CNC1=O [TP1-ct] (WGFIYKTLK[Dha][Dha]G; linker N-C via X2)
cytoplasmic uptake (CAPA), in words (HEK293H cells): taken up into HEK293H cells at a concentration of a single-digit μM

C=C1NC(=O)[C@H](CO)NC(=O)[C@H](CSCC(N)=O)NC(=O)CNC(=O)[C@H](Cc2ccc(O)cc2)NC(=O)[C@H](C)NC(=O)[C@H](CO)NC(=O)[C@H](CC(=O)O)NC(=O)CNC(=O)[C@H](CC(C)C)NC(=O)[C@H](Cc2c[nH]c3ccccc23)NC(=O)[C@H](Cc2c[nH]c3ccccc23)NC(=O)c2ccc(-c3nc(C(=O)OC)cs3)nc2-c2csc1n2 [TP4] (WWLGDSAYGC(Cam)S; linker N-C via X1)
half-life (τ1/2) in human serum [3]: 88 h | stability in human serum, in words [3]: good stability

C=C1NC(=O)/C(=C/C)NC(=O)[C@H](Cc2c[nH]c3ccccc23)NC(=O)[C@H](Cc2c[nH]cn2)NC(=O)[C@H](Cc2c[nH]c3ccccc23)NC(=O)[C@H]([C@@H](C)O)NC(=O)[C@H]([C@@H](C)CC)NC(=O)[C@H](Cc2ccccc2)NC(=O)[C@H](CCC(N)=O)NC(=O)[C@H](CCCNC(=N)N)NC(=O)[C@H](CCCCN)NC(=O)[C@H](CCCC)NC(=O)[C@H](CO)NC(=O)[C@H](Cc2c[nH]c3ccccc23)NC(=O)c2ccc(-c3nc(C(=O)OC)cs3)nc2-c2csc1n2 [IR15] (WS[Nle]KRQFITWHW[Dhb]; linker N-C via X1)
uptake into cytoplasm of HEK293T cells, in words (HEK293T cells): taken up into the cytoplasm of HEK293T cells much more efficiently than Tat | uptake into HEK293T cells relative to Tat (HEK293T cells; in the presence of serum): 2 fold

C=C1NC(=O)[C@H](CCCCN)NC(=O)[C@H](Cc2ccc(O)cc2)NC(=O)[C@H]([C@@H](C)CC)NC(=O)[C@H](CCCNC(=N)N)NC(=O)[C@H](CCCNC(=N)N)NC(=O)[C@H](CCCCN)NC(=O)[C@H](Cc2ccccc2)NC(=O)[C@H](CC(C)C)NC(=O)[C@H](CCSC)NC(=O)[C@H](CO)NC(=O)[C@H](Cc2c[nH]c3ccccc23)NC(=O)c2ccc(-c3nc(C(=O)NCCC(=O)NCCOCCOCCCCCCCl)cs3)nc2-c2csc1n2 [IR1-ct] (WSMLFKRRIYK; linker N-C via X2)
inhibition of NFkB reporter gene activity, in words [5]: significant inhibition
